{"source": "patent US20060014729A1", "about": "“Compounds and their preparation for the treatment of Alzheimer's disease by inhibiting beta-amyloid peptide production” (priority 2004, published 2006)", "key": {"γ-secretase complex": {"test_system": "γ-secretase complex", "settings": "partially purified γ-secretase complex; cited from earlier work"}, "Aβ42": {"test_system": "Aβ42", "settings": "cited from earlier work"}, "secreted Aβ40 and Aβ42": {"test_system": "secreted Aβ40 and Aβ42", "experiment": "Aβ ELISA in CHO-APP cells treated with compounds", "type": "cell-based, hamster (CHO) cells expressing human APP", "settings": "50 μg/ml, 6 and 24 hours, normalized to full-length APP and vehicle-treated cells", "protocol": "CHO cells stably transfected with human APP751 (CHO-APP cells) were treated with compounds as described above. The compounds were used at 50 μg/ml for 6 and 24 hours. Levels of secreted Aβ40 and Aβ42 were determined using a commercial Aβ ELISA kit (Biosource) and normalized to cell-associated full-length APP. The relative levels of Aβ40 (white bar) and Aβ42 (black bar) were normalized to values obtained from vehicle-treated cells and are shown as % to control. […] (D10=20(S), 24(R)-epoxydammarane-3β,25-diol; D2=Dammar-24-ene-3β,20(S)-diol; D3=reduction mixture of dammar resin by NaBH4; D5=Dammar resin mixture; D6=dipterocarpol; D7=t-butylhydroperoxide-oxidized products of D3. D8=3-acetyl Dammar-24-ene-3A, 20(S)-diol; D9=3-acetyl 20(S),24(R)-epoxydammarane-3β,25-diol; D10=20(S),24(R)-epoxydammarane-3×, 25-diol; D11=Dammar-24-ene-3×, 20(S)-diol; D12=tetraacetyl 20-hydroxydammar-24-ene-3-yl-glucopyranoside; D13=20-hydroxydammar-24-ene-3-yl-glucopyranoside; D15=20(S), 24(R)-epoxydammarane-3-oxo, 25-ol."}}, "data": [{"compound": "C=C(CCC=C(C)C)[C@H]1CC[C@]2(C)[C@@H]1[C@H](O)C[C@@H]1[C@@]3(C)CC[C@H](O[C@@H]4O[C@H](CO)[C@@H](O)[C@H](O)[C@H]4O[C@@H]4O[C@H](CO)[C@@H](O)[C@H](O)[C@H]4O)C(C)(C)[C@@H]3CC[C@]12C", "note": "[Rk1]", "values": [{"measurement": "Aβ42 production in cell-free assay", "setting": "γ-secretase complex", "value": "inhibit the Aβ42 production"}, {"measurement": "production of Aβ42 in mammalian cells", "setting": "Aβ42; mammalian cells", "value": "lower the production of Aβ42 in mammalian cells"}, {"measurement": "relative effectiveness in reducing Aβ42 levels", "setting": "Aβ42; mammalian cells", "value": "most effective in reducing Aβ42 levels"}]}, {"compound": "CC(C)=CCC[C@](C)(O)[C@H]1CC[C@]2(C)[C@@H]1[C@H](O)C[C@@H]1[C@@]3(C)CC[C@H](O[C@@H]4O[C@H](CO)[C@@H](O)[C@H](O)[C@H]4O[C@@H]4O[C@H](CO)[C@@H](O)[C@H](O)[C@H]4O)C(C)(C)[C@@H]3CC[C@]12C", "note": "[(20S)Rg3]", "values": [{"measurement": "production of Aβ42 in mammalian cells", "setting": "Aβ42; mammalian cells", "value": "lower the production of Aβ42 in mammalian cells"}]}, {"compound": "CC(C)=CCCC(C)(O)C1CC[C@]2(C)C1CCC1[C@@]3(C)CC[C@@H](O)C(C)(C)C3CC[C@]12C", "note": "(stereo partly drawn) [Compound D11, Dammar-24-ene-3α,20(S)-diol]", "values": [{"measurement": "Aβ-lowering activity (levels of secreted Aβ40 and Aβ42, % to control)", "setting": "secreted Aβ40 and Aβ42", "value": "exhibited Aβ-lowering activities"}]}, {"compound": "CC(C)=CCC[C@](C)(O[C@@H]1O[C@H](CO)[C@@H](O)[C@H](O)[C@H]1O)[C@H]1CC[C@]2(C)[C@@H]1[C@H](O)C[C@@H]1[C@@]3(C)CC[C@H](O)C(C)(C)[C@@H]3[C@@H](O[C@@H]3O[C@H](CO)[C@@H](O)[C@H](O)[C@H]3O)C[C@]12C", "note": "[Rg1]", "values": [{"measurement": "amyloid-reducing activity in vitro", "setting": "Aβ42; in vitro", "value": "no amyloid-reducing activity in vitro"}]}, {"compound": "CC(C)=CCC[C@](C)(O)[C@H]1CC[C@]2(C)[C@@H]1CC[C@@H]1[C@@]3(C)CCC(=O)C(C)(C)[C@@H]3CC[C@]12C", "note": "[Compound D6, dipterocarpol]", "values": [{"measurement": "Aβ-lowering activity (levels of secreted Aβ40 and Aβ42, % to control)", "setting": "secreted Aβ40 and Aβ42", "value": "exhibited Aβ-lowering activities"}]}, {"compound": "CC(C)=CC/C=C(\\C)[C@H]1CC[C@]2(C)[C@@H]1[C@H](O)C[C@@H]1[C@@]3(C)CC[C@H](O[C@@H]4O[C@H](CO)[C@@H](O)[C@H](O)[C@H]4O[C@@H]4O[C@H](CO)[C@@H](O)[C@H](O)[C@H]4O)C(C)(C)[C@@H]3CC[C@]12C", "note": "[Rg5]", "values": [{"measurement": "production of Aβ42 in mammalian cells", "setting": "Aβ42; mammalian cells", "value": "lower the production of Aβ42 in mammalian cells"}]}, {"compound": "CC(C)=CCCC(C)(O)C1CC[C@]2(C)C1CCC1[C@@]3(C)CC[C@H](O)C(C)(C)C3CC[C@]12C", "note": "(stereo partly drawn) [Compound D2, Dammar-24-ene-3β,20(S)-diol]", "values": [{"measurement": "selective potentiation of Aβ42 production", "setting": "secreted Aβ40 and Aβ42", "value": "selectively potentiated Aβ42 production"}]}, {"compound": "tetraacetyl 20-hydroxydammar-24-ene-3-yl-glucopyranoside [Compound D12]", "values": [{"measurement": "Aβ-lowering activity (levels of secreted Aβ40 and Aβ42, % to control)", "setting": "secreted Aβ40 and Aβ42", "value": "exhibited Aβ-lowering activities"}]}, {"compound": "CC(C)(O)[C@H]1CC[C@@](C)([C@H]2CC[C@]3(C)[C@@H]2CC[C@@H]2[C@@]4(C)CC[C@H](O)C(C)(C)[C@@H]4CC[C@]23C)O1", "note": "[Compound D1, 20(S), 24(R)-epoxydammarane-3β, 25-diol]", "values": [{"measurement": "selective potentiation of Aβ42 production", "setting": "secreted Aβ40 and Aβ42", "value": "selectively potentiated Aβ42 production"}]}, {"compound": "CC(C)(O)C1CCC(C)(C2CCC3(C)C2CCC2C4(C)CCC(=O)C(C)(C)C4CCC23C)O1", "note": "[Compound D15, 20(S), 24(R)-epoxydammarane-3-oxo, 25-ol]", "values": [{"measurement": "Aβ-lowering activity (levels of secreted Aβ40 and Aβ42, % to control)", "setting": "secreted Aβ40 and Aβ42", "value": "exhibited Aβ-lowering activities"}]}, {"compound": "CC(=O)O[C@H]1CC[C@]2(C)[C@H]3CC[C@@H]4[C@@H]([C@]5(C)CC[C@H](C(C)(C)O)O5)CC[C@@]4(C)[C@]3(C)CC[C@H]2C1(C)C", "note": "[Compound D9, 3-acetyl 20(S),24(R)-epoxydammarane-3β,25-diol]", "values": [{"measurement": "selective potentiation of Aβ42 production", "setting": "secreted Aβ40 and Aβ42", "value": "selectively potentiated Aβ42 production"}]}, {"compound": "CC(C)(O)[C@H]1CC[C@@](C)([C@H]2CC[C@]3(C)[C@@H]2CC[C@@H]2[C@@]4(C)CC[C@@H](O)C(C)(C)[C@@H]4CC[C@]23C)O1", "note": "[Compound D10, 20(S),24(R)-epoxydammarane-3 cc, 25-diol]", "values": [{"measurement": "Aβ-lowering activity (levels of secreted Aβ40 and Aβ42, % to control)", "setting": "secreted Aβ40 and Aβ42", "value": "exhibited Aβ-lowering activities"}]}]}
